# Results from publication PMC8068801, “Novel Benzenesulfonate Scaffolds with a High Anticancer Activity and G2/M Cell Cycle Arrest” (Cancers, 2021).
# Experiments:
# HCT 116 p53^+/+ cells = test: MTS cytotoxicity assay, HCT 116 p53+/+; format: cell-based, human; details: for IC50: Homo sapiens, HCT 116 p53^+/+, 72 h incubation, MTS; for Selectivity index, HCT 116 p53+/+: NHDF vs HCT 116 p53+/+
# From the text: (§1) M. Rusin from the Maria Sklodowska-Curie Memorial Cancer Centre and Institute of Oncology in Gliwice, Poland. […] G. Kramer-Marek from the Institute of Cancer Research in London, United Kingdom. The human suspension chronic myelogenous leukemia cell line K562 and pancreas ductal adenocarcinoma cell line PANC-1 were purchased from Sigma-Aldrich (St. Louis, MO, USA), while the normal human dermal fibroblasts cell line NHDF were purchased from PromoCell. […] Each medium contained a combination of two antibiotics: penicillin and streptomycin (1% v/v; Gibco). All of these cell lines were grown under standard conditions at 37 °C with a 5% CO2 humidified atmosphere. Moreover, all of the cell lines were routinely tested for mycoplasma using the PCR technique with specific Mycoplasma primers to confirm that there was no contamination.
# (§2) The assay was performed following a 72 h incubation with the various concentrations of the tested compounds. Then, 100 µL DMEM without phenol red with 20 µL of the CellTiter 96®AQueous One Solution-MTS (Promega, Promega, WI, USA) was added to each well and incubated for 1 h or 3 h (PANC-1) at 37 °C. The optical densities of the samples were measured at 490 nm using a multi-plate reader (Synergy 4, BioTek, Winooski, VT, USA). […] Each individual compound was tested in triplicate in a single experiment with each experiment being performed three or four times.
# MCF-7 cells = test: MTS cytotoxicity assay, MCF-7; format: cell-based, human; details: for IC50: Homo sapiens, MCF7, MCF-7, 72 h incubation, MTS; for Selectivity index, MCF-7: NHDF vs MCF-7
# From the text: as §1, §2
# A549 cells = test: MTS cytotoxicity assay, A549; format: cell-based, human; details: for IC50: Homo sapiens, A549, 72 h, A549, 72 h incubation, MTS; for Selectivity index, A549: NHDF vs A549
# From the text: as §1, §2
# U-251 cells [1] = test: MTS cytotoxicity assay, U-251; format: cell-based, human; details: for IC50: Homo sapiens, U-251, 72 h incubation, MTS; for Selectivity index, U-251: NHDF vs U-251
# From the text: as §1, §2
# ABL1 = target: T1, ABL1 (Homo sapiens, UniProt P00519); test: Tyrosine kinase assay (Kinase Selectivity TK-2, ADP-Glo); format: biochemical; details: read-out: Inhibitory Effect of the Tyrosine Kinase Activity, ABL1
# T1 construct: purchased Promega
# Protocol: (§3) Assays using the Kinase Selectivity TK-2 profiling systems and ADP-Glo Kinase Assay (both from Promega) were performed to determine the inhibition of the non-receptor tyrosine kinases. The protocol was previously designed and described by our group in reports. The experiments were performed at least four times. The data are expressed as the percentage of the inhibition activity of tyrosine kinase after treatment with the tested derivatives.
# BRK = target: T2, BRK (Homo sapiens, UniProt Q13882); test: as above; format: biochemical; details: read-out: Inhibitory Effect of the Tyrosine Kinase Activity, BRK
# T2 construct: purchased Promega
# Protocol: as §3
# BTK = target: T3, BTK (Homo sapiens, UniProt Q06187); test: as above; format: biochemical; details: read-out: Inhibitory Effect of the Tyrosine Kinase Activity, BTK
# T3 construct: purchased Promega
# Protocol: as §3
# CSK = target: T4, CSK (Homo sapiens, UniProt P41240); test: as above; format: biochemical; details: read-out: Inhibitory Effect of the Tyrosine Kinase Activity, CSK
# T4 construct: purchased Promega
# Protocol: as §3
# Fyn A = target: T5, Fyn A (Homo sapiens, UniProt P06241); test: as above; format: biochemical; details: read-out: Inhibitory Effect of the Tyrosine Kinase Activity, Fyn A
# T5 construct: purchased Promega
# Protocol: as §3
# Lck = target: T6, Lck (Homo sapiens, UniProt P06239); test: as above; format: biochemical; details: read-out: Inhibitory Effect of the Tyrosine Kinase Activity, Lck
# T6 construct: purchased Promega
# Protocol: as §3
# Lyn B = target: T7, Lyn B (Homo sapiens, UniProt P07948); test: as above; format: biochemical; details: read-out: Inhibitory Effect of the Tyrosine Kinase Activity, Lyn B
# T7 construct: purchased Promega
# Protocol: as §3
# Src = target: T8, Src (Homo sapiens, UniProt P12931); test: as above; format: biochemical; details: read-out: Inhibitory Effect of the Tyrosine Kinase Activity, Src
# T8 construct: purchased Promega
# Protocol: as §3
# U-251 cells [2] = test: Immunoblotting with densitometry, U-251; format: cell-based, human; details: for PARP/Reference 89 kDa, densitometric intensity ratio / caspase-9/Reference 37-35 kDa, densitometric intensity ratio: control 0.330; for BID/Reference 22 kDa, densitometric intensity ratio / Cathepsin b/Reference 44 kDa, densitometric intensity ratio / HIF-1α/Reference 120 kDa, densitometric intensity ratio / PARP/Reference 116 kDa, densitometric intensity ratio / caspase-9/Reference 47 kDa, densitometric intensity ratio / cdc2/Reference 34 kDa, densitometric intensity ratio / cyclin E1/Reference 48 kDa, densitometric intensity ratio / p21/Reference 21 kDa, densitometric intensity ratio / p53/Reference 53 kDa, densitometric intensity ratio: control 1.000; for Cathepsin b/Reference 27 kDa, densitometric intensity ratio: control 2.837; for Cathepsin b/Reference 22 kDa, densitometric intensity ratio: control […]
# Protocol: The K562 and U-251 cells were seeded in 3 cm Petri dishes (Nunc) at a density of 500,000 cells per well and incubated overnight. […] Next, the cell pellets were resuspended in an RIPA buffer containing a Halt Protease Inhibitor Cocktail and a Halt Phosphatase Inhibitor Cocktail along with 0.5 M EDTA (all from Thermo Scientific, Waltham, MA, USA) and lysed on ice for 20 min. Then, the obtained lysates were sonicated and centrifuged at 10,000 rpm for 10 min at 4 °C. The supernatants were collected for further analysis. The protein concentration was measured using a Micro BCA™ Protein Assay Kit (Thermo Scientific) according to the manufacturer’s instructions. Equal amounts of the proteins (16 μg) were electrophoresed on SDS-Page gels and transferred onto nitrocellulose membranes. The membranes were blocked in 5% non-fat milk prepared in TPBS (PBS containing 0.1% Tween-20) for 1 h. After blocking, the membranes were incubated with the specific primary antibodies (all from Cell Signaling) at a 1:1000 dilution—cyclin E, cdc2, PARP, AIF, BID, p53, p21^Waf1/Cip1, HIF-1α, cathepsin B and caspase-9—and at a 1:2000 dilution for the reference proteins—vinculin, β-actin and GAPDH—overnight at 4 °C. The next day, the membranes were washed in TPBS and incubated with horseradish peroxidase (HRP)-conjugated secondary antibodies for 1 h at room temperature. Lastly, the membranes were washed in TPBS and incubated with a SuperSignal™ West Pico Chemiluminescent Substrate (Thermo Scientific). The chemiluminescence signals were captured using a ChemiDoc™ XRS + System (Biorad). The experiments were performed at least four to five times. The densitometric analysis was conducted using ImageJ software (Wayne Rasband, National Institutes of Health, Bethesda, MD, USA).
# The band intensity of tested proteins (p53, cyclin E1, cdc2, p21, HIF-1α, cathepsin b, PARP, caspase-9, BID, AIF) were analyzed by densitometry readings/intensity ratio, using ImageJ software (NIH) and were normalized to the corresponding reference proteins (GAPDH, vinculin or β-actin) value.
# The densitometric readings/intensity ratio data from four/five independent experiments (compared to control): […]
# p53/ Refer- p21/ Refer- cdc2/ Refer- Cyclin E1/ HIF-1α/ Cathepsin b/Reference ence ence ence Reference Reference
# PARP/Reference BID/ Reference Caspase-9/Reference […]
# T7 sequence (P07948 1-491 isoform P07948-2): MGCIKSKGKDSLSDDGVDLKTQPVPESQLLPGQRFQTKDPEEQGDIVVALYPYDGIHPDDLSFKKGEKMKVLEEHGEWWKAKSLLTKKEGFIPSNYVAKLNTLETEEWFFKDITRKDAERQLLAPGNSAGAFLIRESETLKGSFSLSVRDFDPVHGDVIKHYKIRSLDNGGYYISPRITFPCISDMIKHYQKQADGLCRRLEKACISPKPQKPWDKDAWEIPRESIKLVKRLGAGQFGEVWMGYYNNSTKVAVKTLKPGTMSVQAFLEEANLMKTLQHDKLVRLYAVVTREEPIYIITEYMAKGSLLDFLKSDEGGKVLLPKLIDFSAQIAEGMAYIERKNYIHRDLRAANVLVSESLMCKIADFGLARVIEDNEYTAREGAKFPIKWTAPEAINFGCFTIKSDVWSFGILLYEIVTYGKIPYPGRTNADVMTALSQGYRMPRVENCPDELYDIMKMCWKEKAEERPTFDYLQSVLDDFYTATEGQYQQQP
# T2 sequence (Q13882 whole entry): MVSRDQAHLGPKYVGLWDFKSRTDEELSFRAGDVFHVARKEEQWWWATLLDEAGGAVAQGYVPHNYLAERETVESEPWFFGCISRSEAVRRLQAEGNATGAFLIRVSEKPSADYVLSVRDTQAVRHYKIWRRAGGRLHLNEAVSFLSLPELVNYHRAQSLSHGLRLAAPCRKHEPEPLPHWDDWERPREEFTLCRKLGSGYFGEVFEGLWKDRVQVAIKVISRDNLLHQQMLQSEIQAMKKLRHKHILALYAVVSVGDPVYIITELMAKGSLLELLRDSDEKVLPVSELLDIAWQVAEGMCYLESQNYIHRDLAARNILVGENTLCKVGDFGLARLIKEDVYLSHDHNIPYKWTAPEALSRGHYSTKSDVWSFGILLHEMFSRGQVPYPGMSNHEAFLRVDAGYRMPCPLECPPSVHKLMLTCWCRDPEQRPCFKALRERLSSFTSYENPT
# T4 sequence (P41240 whole entry): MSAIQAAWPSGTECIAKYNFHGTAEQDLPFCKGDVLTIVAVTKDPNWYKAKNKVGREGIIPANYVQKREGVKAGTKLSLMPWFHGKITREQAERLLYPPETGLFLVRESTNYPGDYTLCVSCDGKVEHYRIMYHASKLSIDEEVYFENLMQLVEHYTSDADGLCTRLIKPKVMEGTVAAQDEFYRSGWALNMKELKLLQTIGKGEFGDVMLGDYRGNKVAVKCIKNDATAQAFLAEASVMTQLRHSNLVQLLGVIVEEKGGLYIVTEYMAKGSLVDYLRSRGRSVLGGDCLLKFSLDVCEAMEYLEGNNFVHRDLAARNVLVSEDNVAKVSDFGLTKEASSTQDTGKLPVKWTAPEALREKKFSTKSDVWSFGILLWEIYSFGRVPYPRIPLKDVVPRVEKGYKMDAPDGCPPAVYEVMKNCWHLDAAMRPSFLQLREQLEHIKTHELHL
# T3 sequence (Q06187 whole entry): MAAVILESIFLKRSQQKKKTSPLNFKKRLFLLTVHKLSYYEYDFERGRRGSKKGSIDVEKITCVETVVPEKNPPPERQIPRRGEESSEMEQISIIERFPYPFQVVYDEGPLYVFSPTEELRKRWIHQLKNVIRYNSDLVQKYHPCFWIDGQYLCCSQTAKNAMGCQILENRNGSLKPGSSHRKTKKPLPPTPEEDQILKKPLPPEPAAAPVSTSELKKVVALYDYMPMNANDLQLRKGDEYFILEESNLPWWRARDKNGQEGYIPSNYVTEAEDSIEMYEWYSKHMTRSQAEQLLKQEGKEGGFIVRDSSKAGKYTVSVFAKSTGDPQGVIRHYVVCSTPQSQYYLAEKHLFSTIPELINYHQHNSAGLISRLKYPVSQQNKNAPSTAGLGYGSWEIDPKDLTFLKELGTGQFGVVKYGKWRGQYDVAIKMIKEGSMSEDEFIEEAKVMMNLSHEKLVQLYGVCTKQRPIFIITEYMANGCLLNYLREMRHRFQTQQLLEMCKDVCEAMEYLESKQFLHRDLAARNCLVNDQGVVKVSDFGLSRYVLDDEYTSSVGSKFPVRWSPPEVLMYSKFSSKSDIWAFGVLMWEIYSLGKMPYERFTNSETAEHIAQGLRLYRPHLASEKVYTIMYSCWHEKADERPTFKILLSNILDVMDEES
# T6 sequence (P06239 whole entry): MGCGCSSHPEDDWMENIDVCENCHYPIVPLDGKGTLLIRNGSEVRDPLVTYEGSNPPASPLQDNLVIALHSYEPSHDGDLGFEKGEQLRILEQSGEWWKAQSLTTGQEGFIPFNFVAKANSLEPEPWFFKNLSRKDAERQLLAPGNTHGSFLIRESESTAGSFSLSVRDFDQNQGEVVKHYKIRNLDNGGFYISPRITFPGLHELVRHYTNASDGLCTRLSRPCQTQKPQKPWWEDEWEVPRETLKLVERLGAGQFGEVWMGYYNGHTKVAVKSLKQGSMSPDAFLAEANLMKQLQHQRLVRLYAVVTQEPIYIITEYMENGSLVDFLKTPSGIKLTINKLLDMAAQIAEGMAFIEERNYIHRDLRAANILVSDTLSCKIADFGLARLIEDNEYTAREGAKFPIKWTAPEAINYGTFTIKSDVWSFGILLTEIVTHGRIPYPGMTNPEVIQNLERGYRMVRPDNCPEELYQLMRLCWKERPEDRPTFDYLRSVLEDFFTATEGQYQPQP
# T8 sequence (P12931 whole entry): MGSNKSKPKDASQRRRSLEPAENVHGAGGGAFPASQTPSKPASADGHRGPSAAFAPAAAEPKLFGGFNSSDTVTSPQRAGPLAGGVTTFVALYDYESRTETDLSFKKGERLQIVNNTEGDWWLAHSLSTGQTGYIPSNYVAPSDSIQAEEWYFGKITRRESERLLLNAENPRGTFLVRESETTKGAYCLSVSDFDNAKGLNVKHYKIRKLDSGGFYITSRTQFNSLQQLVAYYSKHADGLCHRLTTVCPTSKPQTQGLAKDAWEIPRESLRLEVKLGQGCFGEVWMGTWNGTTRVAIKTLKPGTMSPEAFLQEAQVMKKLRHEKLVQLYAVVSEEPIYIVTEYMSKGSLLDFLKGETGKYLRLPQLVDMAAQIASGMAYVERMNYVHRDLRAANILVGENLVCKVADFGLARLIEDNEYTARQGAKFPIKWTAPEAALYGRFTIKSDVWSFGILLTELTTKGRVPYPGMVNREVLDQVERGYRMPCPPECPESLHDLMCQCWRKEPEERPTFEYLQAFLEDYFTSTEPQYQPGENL
# T5 sequence (P06241 whole entry): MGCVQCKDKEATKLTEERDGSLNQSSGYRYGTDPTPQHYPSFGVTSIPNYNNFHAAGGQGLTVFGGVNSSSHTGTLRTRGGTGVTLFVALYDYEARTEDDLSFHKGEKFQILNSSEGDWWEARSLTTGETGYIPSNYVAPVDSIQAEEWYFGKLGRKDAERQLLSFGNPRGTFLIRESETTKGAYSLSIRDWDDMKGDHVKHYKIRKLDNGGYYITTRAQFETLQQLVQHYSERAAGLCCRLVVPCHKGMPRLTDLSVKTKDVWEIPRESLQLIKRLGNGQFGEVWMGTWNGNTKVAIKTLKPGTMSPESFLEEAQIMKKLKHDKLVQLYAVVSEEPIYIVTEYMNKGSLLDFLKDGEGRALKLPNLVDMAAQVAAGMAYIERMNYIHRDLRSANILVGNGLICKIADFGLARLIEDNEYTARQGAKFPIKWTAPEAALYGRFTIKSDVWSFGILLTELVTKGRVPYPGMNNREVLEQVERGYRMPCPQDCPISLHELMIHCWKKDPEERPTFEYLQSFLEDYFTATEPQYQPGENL
# T1 sequence (P00519 whole entry): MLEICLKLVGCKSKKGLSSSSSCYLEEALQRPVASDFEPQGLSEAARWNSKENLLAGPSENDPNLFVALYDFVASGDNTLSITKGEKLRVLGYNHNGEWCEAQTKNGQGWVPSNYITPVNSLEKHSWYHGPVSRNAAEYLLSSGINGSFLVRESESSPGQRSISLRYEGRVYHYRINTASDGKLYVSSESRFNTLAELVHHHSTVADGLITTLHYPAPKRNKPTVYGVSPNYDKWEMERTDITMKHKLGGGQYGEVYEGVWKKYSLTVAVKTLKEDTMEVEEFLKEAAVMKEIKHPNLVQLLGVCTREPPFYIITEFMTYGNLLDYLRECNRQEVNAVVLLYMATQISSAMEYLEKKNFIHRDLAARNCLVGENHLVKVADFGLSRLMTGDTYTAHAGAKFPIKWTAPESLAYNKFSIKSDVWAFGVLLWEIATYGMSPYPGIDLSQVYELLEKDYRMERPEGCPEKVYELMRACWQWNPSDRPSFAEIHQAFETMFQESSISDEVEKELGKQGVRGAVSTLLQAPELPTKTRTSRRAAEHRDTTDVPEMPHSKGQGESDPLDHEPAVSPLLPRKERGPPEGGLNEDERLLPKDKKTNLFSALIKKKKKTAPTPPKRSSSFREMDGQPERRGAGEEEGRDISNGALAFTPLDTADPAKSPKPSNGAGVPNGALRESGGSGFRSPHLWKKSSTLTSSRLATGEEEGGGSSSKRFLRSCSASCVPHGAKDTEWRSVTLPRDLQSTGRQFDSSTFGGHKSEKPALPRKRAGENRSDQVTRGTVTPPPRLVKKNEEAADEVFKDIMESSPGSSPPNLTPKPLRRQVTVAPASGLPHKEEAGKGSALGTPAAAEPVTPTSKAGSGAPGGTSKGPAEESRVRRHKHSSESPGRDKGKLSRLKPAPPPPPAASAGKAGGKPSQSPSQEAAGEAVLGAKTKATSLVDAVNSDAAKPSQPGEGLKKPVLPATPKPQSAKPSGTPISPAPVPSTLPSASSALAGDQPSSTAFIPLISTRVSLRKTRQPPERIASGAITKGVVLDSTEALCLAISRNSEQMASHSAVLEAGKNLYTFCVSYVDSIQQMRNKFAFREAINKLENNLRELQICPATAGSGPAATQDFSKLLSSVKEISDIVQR
smiles,measurement,setting,value
"COc1ccccc1/C=C/c1nc(OS(=O)(=O)c2cc3c(cc2Br)OCO3)c2ccccc2n1 [BS2, 2-((E)-2-(2-methoxyphenyl)ethenyl)quinazolin-4-yl 6-bromo-1,3-benzodioxole-5-sulfonate]",IC50,HCT 116 p53^+/+ cells,1200 ± 132 nM
same,"Selectivity index, HCT 116 p53+/+",HCT 116 p53^+/+ cells,13.06
same,IC50,MCF-7 cells,16800 ± 2060 nM
same,"Selectivity index, MCF-7",MCF-7 cells,0.93
same,IC50,A549 cells,> 25000 nM
same,"Selectivity index, A549",A549 cells,1.00
same,IC50,U-251 cells [1],2300 ± 234 nM
same,"Selectivity index, U-251",U-251 cells [1],6.80
same,inhibition at 0.5 µM,ABL1,0%
same,inhibition at 0.5 µM,BRK,9.33%
same,inhibition at 0.5 µM,BTK,40.2%
same,inhibition at 0.5 µM,CSK,34.2%
same,inhibition at 0.5 µM,Fyn A,0%
same,inhibition at 0.5 µM,Lck,9.93%
same,inhibition at 0.5 µM,Lyn B,38%
same,inhibition at 0.5 µM,Src,26.3%
same,"PARP/Reference 89 kDa, densitometric intensity ratio","U-251 cells [2]; U-251, 4µM, 24 h",0.763
same,"caspase-9/Reference 37-35 kDa, densitometric intensity ratio","U-251 cells [2]; U-251, 4µM, 24 h",1.071
same,"BID/Reference 22 kDa, densitometric intensity ratio","U-251 cells [2]; U-251, 4µM, 24 h",0.701
same,"Cathepsin b/Reference 44 kDa, densitometric intensity ratio","U-251 cells [2]; U-251, 4µM, 24 h",1.805
same,"HIF-1α/Reference 120 kDa, densitometric intensity ratio","U-251 cells [2]; U-251, 4µM, 24 h",0.587
same,"PARP/Reference 116 kDa, densitometric intensity ratio","U-251 cells [2]; U-251, 4µM, 24 h",0.953
same,"caspase-9/Reference 47 kDa, densitometric intensity ratio","U-251 cells [2]; U-251, 4µM, 24 h",1.007
same,"cdc2/Reference 34 kDa, densitometric intensity ratio","U-251 cells [2]; U-251, 4µM, 24 h",2.272
same,"cyclin E1/Reference 48 kDa, densitometric intensity ratio","U-251 cells [2]; U-251, 4µM, 24 h",0.465
same,"p21/Reference 21 kDa, densitometric intensity ratio","U-251 cells [2]; U-251, 4µM, 24 h",2.205
same,"p53/Reference 53 kDa, densitometric intensity ratio","U-251 cells [2]; U-251, 4µM, 24 h",1.698
same,"Cathepsin b/Reference 27 kDa, densitometric intensity ratio","U-251 cells [2]; U-251, 4µM, 24 h",2.625
same,"Cathepsin b/Reference 22 kDa, densitometric intensity ratio","U-251 cells [2]; U-251, 4µM, 24 h",2.893
same,"PARP/Reference 89 kDa, densitometric intensity ratio","U-251 cells [2]; U-251, 6µM, 24 h",0.698
same,"caspase-9/Reference 37-35 kDa, densitometric intensity ratio","U-251 cells [2]; U-251, 6µM, 24 h",1.188
same,"BID/Reference 22 kDa, densitometric intensity ratio","U-251 cells [2]; U-251, 6µM, 24 h",1.227
same,"Cathepsin b/Reference 44 kDa, densitometric intensity ratio","U-251 cells [2]; U-251, 6µM, 24 h",2.641
same,"HIF-1α/Reference 120 kDa, densitometric intensity ratio","U-251 cells [2]; U-251, 6µM, 24 h",0.661
same,"PARP/Reference 116 kDa, densitometric intensity ratio","U-251 cells [2]; U-251, 6µM, 24 h",0.940
same,"caspase-9/Reference 47 kDa, densitometric intensity ratio","U-251 cells [2]; U-251, 6µM, 24 h",1.035
same,"cdc2/Reference 34 kDa, densitometric intensity ratio","U-251 cells [2]; U-251, 6µM, 24 h",2.282
same,"cyclin E1/Reference 48 kDa, densitometric intensity ratio","U-251 cells [2]; U-251, 6µM, 24 h",0.392
same,"p21/Reference 21 kDa, densitometric intensity ratio","U-251 cells [2]; U-251, 6µM, 24 h",2.783
same,"p53/Reference 53 kDa, densitometric intensity ratio","U-251 cells [2]; U-251, 6µM, 24 h",1.448
same,"Cathepsin b/Reference 27 kDa, densitometric intensity ratio","U-251 cells [2]; U-251, 6µM, 24 h",3.172
same,"Cathepsin b/Reference 22 kDa, densitometric intensity ratio","U-251 cells [2]; U-251, 6µM, 24 h",3.717
"COc1ccccc1/C=C/c1nc(OS(=O)(=O)c2ccc(C)cc2)c2ccccc2n1 [BS4, 2-((E)-2-(2-methoxyphenyl)ethenyl)quinazolin-4-yl 4-methylbenzenesulfonate]",IC50,HCT 116 p53^+/+ cells,1570 ± 357 nM
same,"Selectivity index, HCT 116 p53+/+",HCT 116 p53^+/+ cells,15.95
same,IC50,MCF-7 cells,9130 ± 2050 nM
same,"Selectivity index, MCF-7",MCF-7 cells,2.74
same,IC50,A549 cells,11300 ± 1760 nM
same,"Selectivity index, A549",A549 cells,2.20
same,IC50,U-251 cells [1],1910 ± 214 nM
same,"Selectivity index, U-251",U-251 cells [1],13.11
same,inhibition at 0.5 µM,ABL1,0%
same,inhibition at 0.5 µM,BRK,35.5%
same,inhibition at 0.5 µM,BTK,26.9%
same,inhibition at 0.5 µM,CSK,28.3%
same,inhibition at 0.5 µM,Fyn A,3.51%
same,inhibition at 0.5 µM,Lck,19.5%
same,inhibition at 0.5 µM,Lyn B,0%
same,inhibition at 0.5 µM,Src,0%
same,Cleavage product of caspase-9 (Western blot),"U-251 cells [2]; U-251, 6 μM, 24 h",approximately three-fold increase
same,HIF-1α protein expression (Western blot),"U-251 cells [2]; U-251, 24 h",significant decrease
same,p21 protein expression (Western blot),"U-251 cells [2]; U-251, 24 h",more than two-fold increase
same,p53 protein levels (Western blot),"U-251 cells [2]; U-251, 24 h",statistically significant increase
